Assay results from US4175081A, “5-Substituted thiadiazole ureas” (priority 1977, dated 1979).

Columns and labels:
[1] = tested on: Crabgrass (CG); test: Pre-emergence herbicide test; type: in vivo, Digitaria sanquinalis; settings: Digitaria sanguinalis, pre-emergence, 336 h, two weeks after treatment
Outline: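 Crabgrass (Digitaria sanquinalis) was surface seeded in 3' plastic pots of potting soil, covered with screened soil, and watered by sub-irrigation in greenhouse trays. Pots were seeded one day before spraying in a hood with a moving belt and fixed nozzle. Plants stayed in the greenhouse on sub-irrigation, and pre-emergence control was rated visually two weeks after treatment.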

[2] = tested on: Yellow foxtail grass (YF); test: Pre-emergence herbicide test; type: in vivo, Setaria glauca; settings: Setaria, 336 h, two weeks after treatment
Outline: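 Seeds surface-sown in potting soil one day before spraying; compounds applied pre-emergence at 8 or 4 lbs/acre in 38 gallons/acre spray. Pots held in greenhouse with sub-irrigation only. Injury or control rated visually two weeks after treatment.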

[3] = tested on: Johnson grass (JG); test: Pre-emergence herbicide test; type: in vivo, Sorgum helepense; settings: Sorghum halepense, 336 h, two weeks after treatment
Outline: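 Pots seeded one day before spraying; compound applied pre-emergence at 8 lbs/acre (or 4 lbs/acre) in 38 gallons/acre spray volume. Sub-irrigated in greenhouse; injury/control rated visually two weeks after treatment.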

[4] = tested on: Barnyard grass (BG); test: Pre-emergence herbicide test; type: in vivo; settings: Echinochloa crus-galli, 336 h, two weeks after treatment
Outline: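 Barnyard grass surface-seeded in potting soil and sprayed pre-emergence one day after seeding, at 8 or 4 lb compound/acre in 38 gal/acre spray volume. Pots kept in greenhouse with sub-irrigation only; injury or control rated visually two weeks after treatment.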

[5] = tested on: Amaranth pigweed (PW); test: Pre-emergence herbicide test; type: in vivo, Amaranthus retroflexus; settings: 336 h, two weeks after treatment
Outline: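 Pigweed was surface-seeded in potted soil one day before spraying at 8 lbs compound per acre, or 4 lbs/acre, in 38 gallons per acre. Pots were kept in the greenhouse with sub-irrigation only; injury or control was rated visually two weeks after treatment.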

[6] = tested on: Turnip (TP); test: Pre-emergence herbicide test; type: in vivo, Brassica sp.; settings: Brassica rapa, pre-emergence, 336 h, two weeks after treatment
Outline: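 Turnip (Brassica sp.) seeds were surface sown in 3' plastic pots of potting soil, covered with a thin layer of screened soil, and sub-irrigated in greenhouse trays. Pots were seeded one day ahead of treatment, sprayed pre-emergence under a hood with a fixed nozzle and moving belt, then kept in the greenhouse.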

[7] = tested on: Cotton (CT); test: Pre-emergence herbicide test; type: in vivo, Gossypium hirsutum var. DPL smooth leaf; settings: Gossypium hirsutum, 336 h, two weeks after treatment
Outline: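 Crop and weed species seeded one day before treatment, then sprayed pre-emergence at 8 lbs actual compound per acre (also 4 lbs/acre formulations) in 38 gallons per acre. Pots kept in greenhouse with sub-irrigation only; injury or control visually rated two weeks after treatment.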

[8] = tested on: Corn (CN); test: Pre-emergence herbicide test; type: in vivo; settings: Zea mays, 336 h, two weeks after treatment
Outline: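 Four corn seeds per pot, sown at seed-diameter depth one day before spraying, got soil surface treatment at 8 lbs/acre (4 lbs/acre formulations also prepared) in 38 gallons/acre. Pots were greenhouse-held with sub-irrigation only. Injury or control was scored visually two weeks after treatment.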

[9] = tested on: Bean (BN); test: Pre-emergence herbicide test; type: in vivo, Phaseolus vulgaris var. Black Valentine; settings: Phaseolus vulgaris, 336 h, two weeks after treatment
Outline: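 Black Valentine bean was seeded in potting soil one day before spraying. Compound was applied pre-emergence at 8 lbs/acre (also 4 lbs/acre) in 38 gallons per acre. Plants were sub-irrigated and injury or control was rated visually after two weeks.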

[10] = tested on: Crabgrass (CG); test: Post-emergence herbicide test; type: in vivo, Digitaria sanquinalis; settings: Digitaria sanguinalis, post-emergence, 336 h, two weeks after treatment
Outline: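 Crabgrass (Digitaria sanquinalis) was surface seeded individually in 3' plastic pots of potting soil, covered with screened soil, and watered by sub-irrigation in greenhouse trays. Planting was staggered so seedlings reached the target stage together. Post-emergence sprays were applied in a hood with a removable belt and fixed nozzle, and control was visually rated two weeks after treatment.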

[11] = tested on: Yellow foxtail grass (YF); test: Post-emergence herbicide test; type: in vivo, Setaria glauca; settings: Setaria, 336 h, two weeks after treatment
Outline: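 Potted seedlings grown in greenhouse, planting staggered to reach the target stage together, then sprayed post-emergence at 8 lbs actual compound/acre in 38 gallons/acre (4 lbs/acre formulations also prepared). Sub-irrigated afterwards. Injury or control rated visually two weeks after treatment.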

[12] = tested on: Johnson grass (JG); test: Post-emergence herbicide test; type: in vivo, Sorgum helepense; settings: Sorghum halepense, 336 h, two weeks after treatment
Outline: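 Greenhouse pot-grown seedlings sprayed post-emergence at 8 lbs compound per acre (some at 4 lbs/acre) in 38 gallons per acre spray volume. Sub-irrigated thereafter. Injury/control rated visually two weeks after treatment.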

[13] = tested on: Barnyard grass (BG); test: Post-emergence herbicide test; type: in vivo; settings: Echinochloa crus-galli, 336 h, two weeks after treatment
Outline: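 Greenhouse pot-grown barnyard grass seedlings sprayed post-emergence at 8 lbs active compound per acre (some at 4 lbs/acre) in 38 gallons per acre, then sub-irrigated. Injury or control rated visually two weeks after treatment.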

[14] = tested on: Amaranth pigweed (PW); test: Post-emergence herbicide test; type: in vivo, Amaranthus retroflexus; settings: 336 h, two weeks after treatment
Outline: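 Pot-grown pigweed was sprayed post-emergence at the 1–2 true-leaf stage with compound at rates equivalent to 8 lbs per acre (formulations also prepared for 4 lbs/acre) in 38 gallons per acre, using a hood with fixed nozzle. Plants were sub-irrigated in the greenhouse, and injury or control was rated visually two weeks after treatment.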

[15] = tested on: Turnip (TP); test: Post-emergence herbicide test; type: in vivo, Brassica sp.; settings: Brassica rapa, post-emergence, 336 h, two weeks after treatment
Outline: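 A greenhouse post-emergence herbicide test on turnip. Seeds were sown on the surface of potting soil in 3' plastic pots, lightly covered with screened soil and watered from below. Planting was timed so seedlings had 1 or 2 true leaves above the cotyledons at spraying, done in a hood with a fixed nozzle. Control or injury was scored by eye after two weeks.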

[16] = tested on: Cotton (CT); test: Post-emergence herbicide test; type: in vivo, Gossypium hirsutum var. DPL smooth leaf; settings: Gossypium hirsutum, post-emergence, 336 h, two weeks after treatment
Outline: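 Cotton (Gossypium hirsutum var. DPL smooth leaf) was grown in 3' plastic pots of potting soil, four seeds per pot, planted at a depth equal to the seed diameter and watered by sub-irrigation. At the stage of expanded cotyledons with the first true leaf 1' long, plants were sprayed post-emergence in a hood with a fixed nozzle over a moving belt. Percent control was rated visually two weeks later.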

[17] = tested on: Corn (CN); test: Post-emergence herbicide test; type: in vivo; settings: Zea mays, 336 h, two weeks after treatment
Outline: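 Greenhouse seedlings grown in potting soil and sprayed post-emergence at 8 lbs compound/acre (formulations also made for 4 lbs/acre) in 38 gallons/acre spray volume. Watering by sub-irrigation only. Injury or control rated visually two weeks after treatment.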

[18] = tested on: Bean (BN); test: Post-emergence herbicide test; type: in vivo, Phaseolus vulgaris var. Black Valentine; settings: Phaseolus vulgaris, post-emergence, 336 h, two weeks after treatment
Outline: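 Snapbean (Phaseolus vulgaris var. Black Valentine) was tested post-emergence. Four seeds were sown in 3' plastic pots of potting soil at a depth equal to the seed diameter, then sub-irrigated in greenhouse trays. Planting dates were staggered so plants were sprayed once primary leaves had expanded, with the growing point at the primary leaf nodes.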

[19] = tested on: variety of crops and weed species; test: Pre- and post-emergence herbicide tests, overall assessment of Tables III-VI; type: in vivo; settings: data of Tables III-VI
Outline: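 Crops and weeds grown in potting soil were sprayed at 8 lbs. compound per acre in 38 gallons per acre, pre-emergence pots seeded one day before treatment. Injury or control was visually rated two weeks after treatment.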

CNC(=O)N(C)c1nnc(C(F)(F)F)s1 [Example 36]
pest or weed control ([1]; 2 lb/acre): 100% | pest or weed control at 4483.4 g/ha ([1]; 4 lb/acre): 90% | pest or weed control at 8966.8 g/ha ([1]; 8 lb/acre): 90% | pest or weed control at 2241.7 g/ha ([2]; 2 lb/acre): 100% | pest or weed control at 4483.4 g/ha ([2]; 4 lb/acre): 90% | pest or weed control at 8966.8 g/ha ([2]; 8 lb/acre): 90% | pest or weed control at 2241.7 g/ha ([3]; 2 lb/acre): 70% | pest or weed control at 4483.4 g/ha ([3]; 4 lb/acre): 40% | pest or weed control at 8966.8 g/ha ([3]; 8 lb/acre): 90% | pest or weed control at 2241.7 g/ha ([4]; 2 lb/acre): 80% | pest or weed control at 4483.4 g/ha ([4]; 4 lb/acre): 100% | pest or weed control at 8966.8 g/ha ([4]; 8 lb/acre): 90% | pest or weed control at 2241.7 g/ha ([5]; 2 lb/acre): 90% | pest or weed control at 4483.4 g/ha ([5]; 4 lb/acre): 100% | pest or weed control at 8966.8 g/ha ([5]; 8 lb/acre): 90% | pest or weed control at 2241.7 g/ha ([6]; 2 lb/acre): 100% | pest or weed control at 4483.4 g/ha ([6]; 4 lb/acre): 100% | pest or weed control at 8966.8 g/ha ([6]; 8 lb/acre): 100% | pest or weed control at 2241.7 g/ha ([7]; 2 lb/acre): 80% | pest or weed control at 4483.4 g/ha ([7]; 4 lb/acre): 90% | pest or weed control at 8966.8 g/ha ([7]; 8 lb/acre): 90% | pest or weed control at 2241.7 g/ha ([8]; 2 lb/acre): 30% | pest or weed control at 4483.4 g/ha ([8]; 4 lb/acre): 40% | pest or weed control at 8966.8 g/ha ([8]; 8 lb/acre): 30% | pest or weed control at 2241.7 g/ha ([9]; 2 lb/acre): 90% | pest or weed control at 4483.4 g/ha ([9]; 4 lb/acre): 80% | pest or weed control at 8966.8 g/ha ([9]; 8 lb/acre): 100% | pest or weed control ([10]; 2 lb/acre): 70% | pest or weed control at 4483.4 g/ha ([10]; 4 lb/acre): 90% | pest or weed control at 8966.8 g/ha ([10]; 8 lb/acre): 100% | pest or weed control ([11]; 2 lb/acre): 100% | pest or weed control at 4483.4 g/ha ([11]; 4 lb/acre): 100% | pest or weed control at 8966.8 g/ha ([11]; 8 lb/acre): 100% | pest or weed control ([12]; 2 lb/acre): 80% | pest or weed control at 4483.4 g/ha ([12]; 4 lb/acre): 80% | pest or weed control at 8966.8 g/ha ([12]; 8 lb/acre): 100% | pest or weed control at 2241.7 g/ha ([13]; 2 lb/acre): 100% | pest or weed control at 4483.4 g/ha ([13]; 4 lb/acre): 100% | pest or weed control at 8966.8 g/ha ([13]; 8 lb/acre): 100% | pest or weed control at 2241.7 g/ha ([14]; 2 lb/acre): 100% | pest or weed control at 4483.4 g/ha ([14]; 4 lb/acre): 100% | pest or weed control at 8966.8 g/ha ([14]; 8 lb/acre): 100% | pest or weed control at 2241.7 g/ha ([15]; 2 lb/acre): 100% | pest or weed control at 4483.4 g/ha ([15]; 4 lb/acre): 100% | pest or weed control at 8966.8 g/ha ([15]; 8 lb/acre): 100% | pest or weed control at 2241.7 g/ha ([16]; 2 lb/acre): 100% | pest or weed control at 4483.4 g/ha ([16]; 4 lb/acre): 100% | pest or weed control at 8966.8 g/ha ([16]; 8 lb/acre): 100% | pest or weed control ([17]; 2 lb/acre): 70% | pest or weed control at 4483.4 g/ha ([17]; 4 lb/acre): 100% | pest or weed control at 8966.8 g/ha ([17]; 8 lb/acre): 100% | pest or weed control at 2241.7 g/ha ([18]; 2 lb/acre): 100% | pest or weed control at 4483.4 g/ha ([18]; 4 lb/acre): 100% | pest or weed control at 8966.8 g/ha ([18]; 8 lb/acre): 100% | herbicidal effectiveness / selectivity, in words [19]: extremely effective when applied to a variety of crops and weed species
